Measured values: patent publication US8445511B2, “Quinoline or quinoxaline derivatives for treating neurodegenerative diseases” (Centre National de la Recherche Scientifique (SNRS), priority 2008, dated 2013)

What was measured:
[1] = tested on: PC12 pheochromocytoma cells; test: Differentiating activity on PC12 pheochromocytoma cells; format: cell-based; conditions: 100 nM and 1 μM
Protocol: The cells are maintained in […] flasks at 37° C. in a humid atmosphere enriched by 5% CO2 in RPMI medium supplemented with 10% horse serum, 5% fetal calf serum, 1% glutamine and 1% penicillin/streptomycin mixture. The horse and fetal calf serums are decomplemented for 40 minutes at 56° C. before use. The cultures are divided when they reach 80% confluence, approximately every 3 days. Each operation is performed by scraping the cells and then centrifugation at 1,000 rpm for 5 minutes, mechanical dissociation of the cell aggregates and inoculation at the dilution desired. Before treatment, the cells are cultivated 5 days in a deprivation medium composed of RPMI supplemented with 1% horse serum, 0.5% fetal calf serum, 1% glutamine, 1% penicillin/streptomycin and 50 ng/ml NGF (nerve growth factor). After 5 days of pretreatment with NGF, the cells are washed twice with PBS (phosphate buffered saline), taken up in deprivation medium, scraped and pelleted at 1,000 rpm for 5 minutes. The cells are then dissociated, counted on a hemocytometer and inoculated at a concentration of 15.6×10^3 cells/cm^2. After 4 hours, the cells are treated by various compounds of the invention at the concentrations desired (stock solutions in absolute ethanol and then a series of dilutions in water). […] At least 20 differentiated cells per well are photographed at random and the length of their neurites are measured using the NeuronJ macro of the ImageJ software. The number of neurites is also counted. Mean total neurite length and number of neurites are then calculated per cell. […] In order to quantify the differentiation of PC12 cells we calculated the ratio between the number of cells emitting dendritic extensions and the total number of cells 48 hours after treatment with our substances at 100 nM and at 1 μM. Morphological changes at the microscopic level were quantified for the cells emitting extensions at approximately 100 cells per condition. Thus number of neurites and mean neurite length per cell were measured using the NeuronJ measurement software by ImageJ.

dopaminergic neurons = test: Measurement of tritiated dopamine reuptake in primary mesencephalic cultures; format: cell-based, rat; conditions: 12 days of culture; 1 nM, 10 nM, 100 nM and 1 μM; FIG. 4
Protocol: The primary cultures are treated and cultivated as previously indicated for 12 days in a 24-well plate. The medium is then replaced by a medium lacking serum and enriched with glucose (PBS+5 mM glucose). One well is treated with GBR (5 μM) and will be used to determine nonspecific reuptake. The cells are incubated in this medium for 10 minutes. 50 μl of tritiated dopamine in solution (20 μl of 1 mCi/ml ^3H-dopamine in 1 ml PBS) is added in each well and the cells are incubated for 20 minutes at 37° C.
The wells are then washed twice with PBS, and then 500 μl distilled water is added. The cells are scraped and the liquid transferred to scintillation vials containing 7 ml scintillation liquid (Biodegradable Counting Scintillant-liquid scintillation spectroscopy, BCS), well by well. The samples are run through the scintillation counter.
Neurons at 12 days of culture are then cultivated for a short time in the presence of tritiated dopamine (H^3-DA). After washing, the cells are lysed and intraneuronal H^3-DA is recovered and assayed by scintillation counter.

GABAergic neurons = test: Measurement of tritiated GABA reuptake in primary mesencephalic cultures; format: cell-based, rat; conditions: 12 days of culture; 10 nM and 100 nM; FIG. 6
Protocol: The primary cultures are treated and cultivated as previously indicated with 0.5 embryo per well in a 24-well plate for 12 days. The medium is then replaced by a medium lacking serum and enriched with glucose (PBS+5 mM glucose). The cells are incubated in this medium for 10 minutes. 50 μl of tritiated GABA in solution (20 μl of 1 mCi/ml ^3H-GABA in 1 ml PBS) is added in each well and the cells are incubated for 5 minutes at 37° C. Since GABA is taken back up very quickly, it is important to be fast when adding reagents and not to handle too many wells at the same time.
All wells except one are then washed twice with PBS, and then 500 μl distilled water is added. The cells are scraped and the liquid transferred to scintillation vials containing 7 ml scintillation liquid (Biodegradable Counting Scintillant-liquid scintillation spectroscopy, BCS), well by well. The plate containing the remaining well is placed on ice for 30 minutes, then 50 μl of the same GABA solution is added. After 5 minutes, the well is washed twice with PBS and then the cells are lysed with 500 μl distilled water, scraped and the liquid is transferred to a vial containing 5 ml scintillation liquid. This well will be used to measure non-specificity. The samples are run through the scintillation counter.

**Q.** Which results are given for `C#CC(O)CCCCCCCCCCCCC#Cc1ccc2ccccc2n1` (centres unmarked) [Compound N3, 17-(quinolin-2-yl)heptadec-1,16-diyn-3-ol]?
**A.** cells producing extensions (percentage of PC12 cells differentiated) by comparison with untreated cells ([1]; 48 hours after treatment, FIG. 1A): two to three times as many cells produce extensions; mean neurite length per cell compared to the control ([1]; PC12 cells, FIG. 1B): longer; number of neurites per cell compared to the control ([1]; PC12 cells, FIG. 1B): more; reuptake of tritiated dopamine by dopaminergic neurons versus untreated control (dopaminergic neurons): increased; activity of total neurons of the culture (reuptake of tritiated GABA) versus untreated control (GABAergic neurons): increased
